Assay results published in EP0021207A1, “Alphacarbamoyl-pyrrolpropionitriles, process for their preparation and pharmaceutical preparations containing them” (priority 1979, dated 1981).

Tests used:
[1] = test system: Adjuvansarthritis; experiment: Adjuvant arthritis test in the rat; assay type: in vivo; conditions: po, Ratten, peroral, read-out: hoch aktiv bei peroralen Dosen bis hinunter zu
Source text: Die Verbindungen der Erfindung zeigen wertvolle pharmakologische Eigenschaften, in erster Linie antiinflammatorische und antiarthritische Wirkungen. Diese können in in-vitro oder in-vivo Versuchen nachgewiesen werden. In den letzteren werden vorzugsweise Säugetiere, z.B. Ratten, Katzen, Meerschweinchen oder Hunde als Testobjekte verwendet. Die Verbindungen der Erfindung können ihnen enteral, vorzugsweise oral, parenteral, z.B. subkutan oder intravenös, oder topisch, z.B. in Form von Lösungen in Wasser oder Oel, oder in Form von Stärke enthaltenden Suspensionen, verabreicht werden. Die verwendete Dosis kann in einem Bereich von ungefähr zwischen 0,1 und 100 mg/kg/Tag, vorzugsweise ungefähr 1 und 50 mg/kg/Tag, in erster Linie ungefähr 2 und. 25 mg/kg/Tag, liegen. Die für die genannten Wirkungen gewählten Tests sind entweder klassische Versuchsmethoden, z.B.der Carrageenin-Pfotenödem- oder der Adjuvansarthritis-Test in der Ratte, der Synoviitis-Versuch am Hund oder der Test, in welchem das durch ultraviolettes Licht hervorgerufene Erythem ausgewertet wird, oder moderne Testmethoden. Solche sind die neutrale Protease Hemmung [beschrieben in Arthritis Rheum. 17, 47 (1974)] oder die Hemmung der Leukozyten Chemotaxis [N.Y.Acad. Sci., 256, 177 (1975)]. […]

[2] = test system: BCG-immunisierten Makrophagen; assay type: cell-based, Charles River-Ratten; conditions: in vitro, result in words

| Compound | minimal effective dose [1] | Einfluss auf die Makrophagen-Chemotaxis [2] |
| --- | --- | --- |
| Cn1cccc1C(=O)C(C#N)C(=O)Nc1ccccc1 (stereo not drawn) [1-Methyl-β-oxo-α-phenylcarbamoyl-2-pyrrol-propionitril] | ≥ 2 mg/kg/day |  |
| COc1ccc2c(c1)c(CC(=O)O)c(C)n2C(=O)c1ccc(Cl)cc1 [Indomethacin] |  | beeinflusst das Indomethacin die Makrophagen-Chemotaxis nicht |
